What all share (format): cell-based, human
Test [1] deals with SuDHL4 cell line. The test can be described thus: miBH3 profile of the SuDHL4 cell line. As to conditions: response to BH3 peptides. Here is the method: FIGS. 14A-14B are a series of bar graphs showing the correlation of miBH3 profiles with known profiles.
Dynamic BH3 profiling can be accomplished at the single cell level by immobilizing cells on a solid surface. Optionally the solid surface is polyamine or poly-lysine coated. Immobilized cells are permeabilized as described above. The cells are then contacted with BH3 peptides and/or test agents. After the cells have been treated for a predetermined period of time such as 45-90 minutes, the cells are fixed and permeabilized by methods known in the art. For example the cells are fixed with formaldehyde and further permeabilized with methanol or triton x-100. Outer membrane permeabilization is determined intracellular staining for molecules from the mitochondrial inter-membrane space and a mitrochondrial marker. Examples of molecules that can be measured include cytochrome c and SMAC/Diablo, Omi, adenylate kinase-2 or apoptotic-inducing factor (AIF). Mitochondrial markers include MnSOD. Stained cells can be counterstained with nuclear stains such as DAPI. Optionally other intracellular and extracellular markers can be measured. Analysis of the cells can be manually accomplished using a microscope or automated for example by using software such as Cellprofiler to locate nuclei.
MicroBH3 (miBH3) is a BH3 profiling method where the measurement of the mitochondrial effect of BH3 peptides have on individual cells by microscopy. To accomplish this, cells are immobilized on polyamine or poly-lysine coated surfaces and treated with low concentrations of digitonin in a mitochondrial buffer to permeabilize the plasma membrane and grant access to the mitochondria without cell disruption. […] Fixed cells by this method can be readily stopped at the fixation step and can be analyzed weeks after acquisition as well as readily re-analyzed if needed.

In test [2] the test system is PC9GR. The test can be described thus: Dynamic BH3 profiling, PC9 gefitinib resistant. As to conditions: gefitinib 1 μM, WZ4002 100 nM, 16 hours; BH3 peptide Bim at low concentrations. Here is the method: (§1) In various methods, sensitivity of a cell to an agent is determined. The methods include contacting a test cell with a test agent. Cell sensitivity to the test agent is determined by contacting the test cell or test cellular component (e.g., mitochondria) exposed to the test agent with standardized concentration of a panel of BH3 domain peptide from the pro-apoptotic BCL-2 family. […] The cell or cellular component is a cancer cell or a cell that is suspected of being cancerous. The cell is permeabilized to permit the BH3 peptides access to the mitochondria. Cells are permeabilized by methods known in the art. For example, the cell are permeabilized by contacting the cell with digitonin, or other art-recognized detergents and cell-permeabilization agents. After the cells are permeabilized the cells are treated with the BH3 peptides or test agents. After the cell is treated, mitochondrial outer membrane permeabilization is measured. Outer membrane permeabilization is measured by a number of methods. For example outer membrane permeabilization is measured by loss of mitochondrial membrane potential. Loss of mitochondrial membrane potential is measured for example by treating the cells with a potentiometric or radiometric dye. Three different cell lines were used: PC9, PC9 gefitinib resistant (PC9GR, including the mutation T790M) and PC9GR resistant to WZ4002 (PC9WZR). […]

Test [3] concerns PC9. The test can be described thus: Dynamic BH3 profiling, NSCLC cell line PC9. As to conditions: gefitinib 1 μM, WZ4002 100 nM, 16 hours; BH3 peptide Bim at low concentrations. Here is the method:
as §1

The subject of test [4] is PC9WZR. The test can be described thus: Dynamic BH3 profiling, PC9GR resistant to WZ4002. To be noted: gefitinib 1 μM, WZ4002 100 nM, 16 hours; BH3 peptide Bim at low concentrations. How it is done:
as §1

Test [5] deals with K562. The test can be described thus: Dynamic BH3 profiling, K562 cells. To be noted: for change in depolarization caused by the BIM BH3 peptide following drug treatment: drug exposure 16 hours. Here is the method: (§2) The change in depolarization caused by the BIM BH3 peptide following drug treatment is shown. […] Imatinib is a positive control.
(§3) In various methods, sensitivity of a cell to an agent is determined. The methods include contacting a test cell with a test agent. Cell sensitivity to the test agent is determined by contacting the test cell or test cellular component (e.g., mitochondria) exposed to the test agent with standardized concentration of a panel of BH3 domain peptide from the pro-apoptotic BCL-2 family.
(§4) The cell or cellular component is a cancer cell or a cell that is suspected of being cancerous. The cell is permeabilized to permit the BH3 peptides access to the mitochondria. Cells are permeabilized by methods known in the art. For example, the cell are permeabilized by contacting the cell with digitonin, or other art-recognized detergents and cell-permeabilization agents.
(§5) After the cells are permeabilized the cells are treated with the BH3 peptides or test agents. After the cell is treated, mitochondrial outer membrane permeabilization is measured. Outer membrane permeabilization is measured by a number of methods. For example outer membrane permeabilization is measured by loss of mitochondrial membrane potential. Loss of mitochondrial membrane potential is measured for example by treating the cells with a potentiometric or radiometric dye.

Test [6] concerns Ku812. Briefly: Dynamic BH3 profiling, Ku812 cells. How it is done: as §2, §3, §4, §5
Test [7] concerns Ku812. The test can be described thus: Cell death, Ku812 cells.
In test [8] the test system is K562. The test can be described thus: Cell death by Annexin V/PI, K562 cells. To be noted: drug exposure 72 hours.

The results in this text go back to patent publication US11815508B2, “Dynamic BH3 profiling” (Dana-Farber Cancer Institute, Inc., priority 2012, dated 2023).

For the compound HQAEVQIARKLQLIADQFHR [BMF], in test [1], the “release of cytochrome c and loss of correlation between cytochrome c and MnSOD channels” value was “Release of cytochrome c and loss of correlation”.
On to `COc1cc2ncnc(Nc3ccc(F)c(Cl)c3)c2cc1OCCCN1CCOCC1` [gefitinib], for which the figures for the “sensitivity (change in priming) by dynamic BH3 profiling” value in test [2], in test [3] and in test [4] were “insensitive”, “sensitive” and “insensitive”, respectively.
For `Cc1ccc(NC(=O)c2ccc(CN3CCN(C)CC3)cc2)cc1Nc1nccc(-c2cccnc2)n1` [imatinib], the “change in depolarization caused by the BIM BH3 peptide following drug treatment” value (from here on “change in depolarization caused”) in test [5] was “significant changes”. Further, the “priming, several BH3 peptides” value in test [5] (imatinib 1 μM, 16 h and 8 h) was “increase in priming”; in test [6] (imatinib 1 μM, 16 h and 8 h), “increase in priming”. In test [7], the cell death entry is “induce cell death”.
As for `Cc1sc2c(c1C)C(c1ccc(Cl)cc1)=N[C@@H](CC(=O)OC(C)(C)C)c1nnc(C)n1-2` [JQ1], the “priming by dynamic BH3 profiling” value in test [6] (epigenetic modifying agents, imatinib positive control) is reported as “increases priming”. For the same compound, in test [7], the cell death result was “induce cell death”.
As for `COc1cc(N2CCC(N3CCN(C)CC3)CC2)ccc1Nc1ncc(Cl)c(Nc2ccccc2S(=O)(=O)C(C)C)n1` [TAE-684], the “change in depolarization caused” value in test [5] is listed as “significant changes”. Moreover, in test [8], the “cell death response (Annexin V/PI)” value is on record as “unexpected killing”.
EQWAREIGAQLRRMADDLNA [PUMA]: the “release of cytochrome c and loss of correlation between cytochrome c and MnSOD channels” value in test [1] is “Release of cytochrome c and loss of correlation”.
Take LWAAQRYGRELRRMSDEFEGSFKGL [BAD]: in test [1], the “release of cytochrome c and loss of correlation between cytochrome c and MnSOD channels” value was “Release of cytochrome c and loss of correlation”.
Turning to `Cn1c(=O)n(-c2ccc(C(C)(C)C#N)cc2)c2c3cc(-c4cnc5ccccc5c4)ccc3ncc21` [BEZ235], in test [5], the “change in depolarization caused” value is “significant changes”. Moreover, the “cell death response (Annexin V/PI)” value in test [8] was “unexpected killing”.
With `C=CC(=O)Nc1cccc(Oc2nc(Nc3ccc(N4CCN(C)CC4)cc3OC)ncc2Cl)c1` [WZ4002], the “sensitivity (change in priming) by dynamic BH3 profiling” value in test [2] is given as “sensitive”; in test [3], “sensitive”; in test [4], “insensitive”.
